# Test results taken from US20020177203A1, “Alpha2 subunit of prolyl 4-hydroxylase” (priority 1996, published 2002).
# Assays:
# [1] = molecular target: T1, human type 1 prolyl 4-hydroxylase tetramer (α12β2) (Homo sapiens, UniProt P13674); test: Prolyl 4-hydroxylase activity assay (decarboxylation of 2-oxo[1-14C]glutarate), type 1 enzyme; type: biochemical; conditions: α12β2, recombinant enzyme from insect cells, 0.1% Triton X-100 extract
# T1 construct: made in house; host or cells: Spodoptera frugiperda Sf9 insect cells (baculovirus co-infection); 0.1% Triton X-100 extract
# Protocol: (§1) A recombinant baculovirus coding for the mouse α2 subunit was generated and used to infect S. frugiperda insect cells with or without the human PDI/β subunit, wherein the insect cells were infected at a multiplicity of 5. For production of an enzyme tetramer, the human α59 1 (see, Vuori, et al., supra) or mouse α2 viruses and the PDI/β viruses (id.) were used in a 1:1 or 2:1 ratio. […] The resulting supematants were analyzed by SDS/8% PAGE or nondenaturing 7.5% PAGE and assayed for enzyme activities. The cell pellets were further solubilized in 1% SDS, and the 0.1% Triton X-100-soluble and 1% SDS-soluble proteins were analyzed by SDS/PAGE under reducing for the α1 subunit of prolyl 4-hydroxylase (Veijola et al., supra; Vuori et al., supra; John et al. […] The 0.1% Triton X-100 extracts from cell homogenates containing either the mouse-human type II or the human type I enzyme were analyzed for prolyl 4-hydroxylase activity with an assay based on the hydroxylation-coupled decarbosylation of 2-oxo[1^14C]glutarate (Kivirikko and Myllyla, supra).
# [2] = molecular target: T2, mouse/human type 2 prolyl 4-hydroxylase tetramer (α22β2) (Mus musculus, UniProt Q60716); test: Prolyl 4-hydroxylase activity assay (decarboxylation of 2-oxo[1-14C]glutarate), type 2 enzyme; type: biochemical; conditions: for IC50: α22β2, footnote: values determined as IC50, read-out: Ki column, values determined as IC50
# T2 construct: the cDNA clones, considered in combination, cover the whole coding region of the mouse α2 subunit; made in house; host or cells: Spodoptera frugiperda Sf9 insect cells (baculovirus pVL1392 construct, co-infection with PDI/β virus); 0.1% Triton X-100 extract
# Protocol: as §1
# [3] = α22β2 (mouse α2, human PDI/β), recombinant enzyme from insect cells
# T1 sequence (P13674 18-534): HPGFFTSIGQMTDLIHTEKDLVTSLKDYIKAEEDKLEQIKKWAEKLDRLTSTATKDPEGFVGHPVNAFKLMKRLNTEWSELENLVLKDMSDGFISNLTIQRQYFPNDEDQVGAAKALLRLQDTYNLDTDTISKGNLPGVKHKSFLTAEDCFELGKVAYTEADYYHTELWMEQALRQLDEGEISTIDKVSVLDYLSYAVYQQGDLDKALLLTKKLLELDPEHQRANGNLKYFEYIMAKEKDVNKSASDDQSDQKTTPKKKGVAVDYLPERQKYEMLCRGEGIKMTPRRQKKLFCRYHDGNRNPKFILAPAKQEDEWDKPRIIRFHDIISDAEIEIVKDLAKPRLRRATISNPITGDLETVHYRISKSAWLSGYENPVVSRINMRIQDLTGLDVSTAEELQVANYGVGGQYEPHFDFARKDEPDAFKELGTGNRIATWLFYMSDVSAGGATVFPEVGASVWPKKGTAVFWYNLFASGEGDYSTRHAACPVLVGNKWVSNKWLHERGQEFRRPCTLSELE
# T1 sequence (P07237 18-508 partner): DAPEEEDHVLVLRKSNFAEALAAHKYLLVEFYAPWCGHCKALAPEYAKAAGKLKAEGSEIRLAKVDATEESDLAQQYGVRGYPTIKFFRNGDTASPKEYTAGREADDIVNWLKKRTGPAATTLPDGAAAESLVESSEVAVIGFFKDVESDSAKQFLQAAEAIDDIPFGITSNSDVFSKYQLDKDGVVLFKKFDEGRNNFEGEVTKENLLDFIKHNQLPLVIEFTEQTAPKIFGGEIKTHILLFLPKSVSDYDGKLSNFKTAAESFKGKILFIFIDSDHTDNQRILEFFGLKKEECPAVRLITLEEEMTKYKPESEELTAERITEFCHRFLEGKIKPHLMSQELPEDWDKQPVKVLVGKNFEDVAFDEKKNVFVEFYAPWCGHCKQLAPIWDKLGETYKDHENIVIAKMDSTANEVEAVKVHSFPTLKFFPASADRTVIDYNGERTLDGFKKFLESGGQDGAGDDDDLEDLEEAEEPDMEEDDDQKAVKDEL
# T2 sequence (Q60716 20-537 limits assumed): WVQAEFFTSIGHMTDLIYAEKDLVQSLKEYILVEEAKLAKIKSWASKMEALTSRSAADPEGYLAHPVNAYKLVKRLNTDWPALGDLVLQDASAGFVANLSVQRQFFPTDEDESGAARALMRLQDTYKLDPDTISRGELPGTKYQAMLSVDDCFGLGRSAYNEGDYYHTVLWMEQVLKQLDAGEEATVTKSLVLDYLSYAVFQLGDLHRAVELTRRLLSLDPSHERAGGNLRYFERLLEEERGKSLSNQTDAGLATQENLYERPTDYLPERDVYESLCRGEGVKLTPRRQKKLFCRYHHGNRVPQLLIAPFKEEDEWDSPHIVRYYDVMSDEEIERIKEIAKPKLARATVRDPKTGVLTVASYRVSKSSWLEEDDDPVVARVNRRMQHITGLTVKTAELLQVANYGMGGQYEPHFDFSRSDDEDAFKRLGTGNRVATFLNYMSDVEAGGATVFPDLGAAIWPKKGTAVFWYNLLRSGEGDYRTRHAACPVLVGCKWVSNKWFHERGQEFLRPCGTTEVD
# T2 sequence (P07237 18-508 partner): as the sequence (P07237 18-508 partner) above
compound,measurement,setting,value
"O=C(O)c1ccnc(C(=O)O)c1 [Pyridine-2,4-dicarboxylate]",Ki,[1],2 µM
same,Ki,[2]; [3],1 µM
"Poly(t-proline), Mt 7000",Ki,[1],0.5 µM
same,IC50,[2],300 µM
[Fe+2] [Fe^2+],Km,[1],4 µM
same,Km,[2]; [3],4 µM
"Poly(t-proline), Mt 44,000",Ki,[1],0.02 µM
same,IC50,[2],30 µM
poly (L-proline),inhibition of the type 2 enzyme,[2]; type 2 enzyme compared with type 1,inhibited by poly (L-proline) only at very high concentrations
"O=C(O)CCC(=O)C(=O)O [2-Oxoglutatrate, 2-oxoglutarate]",Km,[1],22 µM
same,Km,[2]; [3],12 µM
(Pro-Pro-Gly)10 [(Pro--Pro--Gly)],Km,[1],18 µM
same,Km,[2]; [3],45 µM
